These results are taken from EPA's CvTdb concentration-time database.

Data set [1] concerns Rat. In words: concentration in plasma after dosing. The settings on record: dosed: Wyeth-14643, 5.0 mg/kg, oral, Male, Sprague-Dawley.
Data set [2] has as its system Rat. The experiment in a line: concentration in plasma after dosing. The conditions noted are these: 0.25 h; dosed: Wyeth-14643; 2.0 mg/kg; iv; Male; Sprague-Dawley.
For data set [3], the system named is Rat. The experiment in a line: concentration in heart after dosing. The settings on record: 20 min; dosed: Bis 2-Chloroethoxy Methane; 20 mg/kg; iv; Male; F344.
Data set [4] relates to Rat. The experiment in a line: concentration in liver after dosing. The conditions noted are these: 3 h; dosed: Bis 2-Chloroethoxy Methane; 20 mg/kg; iv; Male; F344.
Data set [5] relates to Rat. In words: concentration in liver after dosing. The conditions noted are these: 1 h; dosed: Bis 2-Chloroethoxy Methane; 20 mg/kg; iv; Male; F344.
For data set [6], the system named is Rat. In words: concentration in plasma after dosing. The conditions noted are these: 10 min; dosed: Bis 2-Chloroethoxy Methane; 20 mg/kg; iv; Male; F344.
Data set [7] relates to Rat. In words: concentration in plasma after dosing. The settings on record: 20 min; dosed: Bis 2-Chloroethoxy Methane; 20 mg/kg; iv; Male; F344.
Data set [8] concerns Rat. The experiment in a line: concentration in plasma after dosing. The conditions noted are these: 1 h; dosed: Bis 2-Chloroethoxy Methane; 20 mg/kg; iv; Female; F344.
The subject of data set [9] is Rat. In words: concentration in thymus after dosing. The settings on record: 6 h; dosed: Bis 2-Chloroethoxy Methane; 20 mg/kg; iv; Male; F344.
The test system of data set [10] is Rat. The experiment in a line: concentration in liver after dosing. The settings on record: 2 h; dosed: Bis 2-Chloroethoxy Methane; 20 mg/kg; iv; Male; F344.
In data set [11] the test system is Rat. In words: concentration in thymus after dosing. The settings on record: 10 min; dosed: Bis 2-Chloroethoxy Methane; 20 mg/kg; iv; Female; F344.
In data set [12] the test system is Rat. In words: concentration in liver after dosing. The conditions noted are these: 40 min; dosed: Bis 2-Chloroethoxy Methane; 20 mg/kg; iv; Male; F344.
For data set [13], the system named is Rat. In words: concentration in heart after dosing. The conditions noted are these: 10 min; dosed: Bis 2-Chloroethoxy Methane; 20 mg/kg; iv; Male; F344.
The test system of data set [14] is Rat. The experiment in a line: concentration in plasma after dosing. The settings on record: 4 h; dosed: Bis 2-Chloroethoxy Methane; 20 mg/kg; iv; Male; F344.
Data set [15] has as its system Rat. In words: concentration in plasma after dosing. The conditions noted are these: dosed: Bis 2-Chloroethoxy Methane, 40 mg/kg, iv, Male, Harlan Sprague Dawley.
Data set [16] deals with Rat. In words: concentration in plasma after dosing. The conditions noted are these: dosed: Fluorotelomer alcohol 8+2, 24 mg/kg, oral, Male, Harlan Sprague Dawley.
For data set [17], the system named is Rat. In words: concentration in liver after dosing. The conditions noted are these: 0.5 h; dosed: Fluorotelomer alcohol 8+2; 80 mg/kg; oral; Female; Harlan Sprague Dawley.
Data set [18] relates to Rat. In words: concentration in plasma after dosing. The settings on record: dosed: Fluorotelomer alcohol 8+2, 40 mg/kg, iv, Male, F344.
The subject of data set [19] is Rat. The experiment in a line: concentration in brain after dosing. The conditions noted are these: 1 h; dosed: Fluorotelomer alcohol 8+2; 80 mg/kg; oral; Female; Harlan Sprague Dawley.
In data set [20] the test system is Rat. The experiment in a line: concentration in plasma after dosing. The conditions noted are these: 10 min; dosed: Di-n-butyl phthalate; 50 mg/kg; oral; Male; Sprague-Dawley.
Data set [21] relates to Rat. The experiment in a line: concentration in plasma after dosing. The settings on record: 4 h; dosed: Di-n-butyl phthalate; 100 mg/kg; oral; Male; Sprague-Dawley.
The test system of data set [22] is Rat. In words: concentration in liver after dosing. The settings on record: 24 h; dosed: Perfluorodecanoic acid; 10 mg/kg; oral; Female; Harlan Sprague Dawley.
The subject of data set [23] is Rat. In words: concentration in plasma after dosing. The settings on record: 22 h; dosed: Primidone; 30 mg/kg; oral; Female; F344.
Data set [24] has as its system Rat. In words: concentration in plasma after dosing. The conditions noted are these: 22 h; dosed: Primidone; 130 mg/kg; oral; Male; F344.
Data set [25] deals with Rat. The experiment in a line: concentration in plasma after dosing. The conditions noted are these: 1.5 h; dosed: Primidone; 80 mg/kg; oral; Female; F344.
The test system of data set [26] is Rat. In words: concentration in plasma after dosing. The conditions noted are these: 9 h; dosed: Primidone; 30 mg/kg; oral; Female; F344.
The test system of data set [27] is Rat. The experiment in a line: concentration in plasma after dosing. The settings on record: 18 h; dosed: Primidone; 80 mg/kg; oral; Male; F344.
The subject of data set [28] is Rat. The experiment in a line: concentration in heart after dosing. The conditions noted are these: 1 h; dosed: Thiodiglycolic Acid; 20 mg/kg; iv; Female; Harlan Sprague Dawley.
Data set [29] has as its system Rat. The experiment in a line: concentration in liver after dosing. The conditions noted are these: 5.333 h; dosed: Thiodiglycolic Acid; 20 mg/kg; iv; Female; Harlan Sprague Dawley.
Data set [30] relates to Rat. In words: concentration in thymus after dosing. The conditions noted are these: 10 min; dosed: Thiodiglycolic Acid; 20 mg/kg; iv; Male; F344.
Data set [31] has as its system Rat. The experiment in a line: concentration in liver after dosing. The settings on record: 10 min; dosed: Thiodiglycolic Acid; 20 mg/kg; iv; Female; Harlan Sprague Dawley.
The test system of data set [32] is Rat. In words: concentration in thymus after dosing. The conditions noted are these: 4 h; dosed: Thiodiglycolic Acid; 20 mg/kg; iv; Male; Harlan Sprague Dawley.
Data set [33] concerns Rat. The experiment in a line: concentration in plasma after dosing. The settings on record: 1 h; dosed: Thiodiglycolic Acid; 20 mg/kg; iv; Female; Harlan Sprague Dawley.
In data set [34] the test system is Rat. In words: concentration in liver after dosing. The settings on record: 6.667 h; dosed: Thiodiglycolic Acid; 20 mg/kg; iv; Female; Harlan Sprague Dawley.
Data set [35] has as its system Rat. The experiment in a line: concentration in plasma after dosing. The conditions noted are these: 10 min; dosed: dichloroacetic acid; 10 mg/kg; iv; Male; F344.
Data set [36] relates to Rat. The experiment in a line: concentration in plasma after dosing. The conditions noted are these: dosed: dichloroacetic acid, 100 mg/kg, oral, Male, F344.
Data set [37] concerns Rat. In words: concentration in plasma after dosing. The settings on record: dosed: dichloroacetic acid, 10 mg/kg, oral, Male, Harlan Sprague Dawley.
Data set [38] concerns Rat. The experiment in a line: concentration in plasma after dosing. The conditions noted are these: 20 min; dosed: dichloroacetic acid; 10 mg/kg; iv; Male; F344.

The structures appear in SMILES notation.

For `Cc1cccc(Nc2cc(Cl)nc(SCC(=O)O)n2)c1C`, the concentration in plasma was 0.572 µg/mL in [1] (5 min), 0.255 µg/mL in data set [1] (8 h) and 17.4 µg/mL in data set [2].
Consider `ClCCOCOCCCl` [Bis 2-Chloroethoxy Methane], for which the concentration in heart was 6660 ng/g in [3] and 12300 ng/g in data set [13]. For the same compound, the concentration in liver in data set [4] stood at 130 ng/g; in data set [5], 2070 ng/g; in data set [10] it was 564 ng/g; in [12] it was 3320 ng/g. The concentration in plasma in data set [6] came to 11 µg/mL; in data set [7], 5.58 µg/mL; in [8] it was 0.9 µg/mL; in data set [14] it was 0.118 µg/mL; in [15] (40 min), 6.61 µg/mL; in data set [15] (8 h), 0.0155 µg/mL. The concentration in thymus was 19.5 ng/g in [9] and 50600 ng/g in data set [11].
For `OCCC(F)(F)C(F)(F)C(F)(F)C(F)(F)C(F)(F)C(F)(F)C(F)(F)C(F)(F)F` [Fluorotelomer alcohol 8+2], the concentration in plasma turned out to be 0.176 µg/mL in [16] (0.25 h), 0.00378 µg/mL in [16] (24 h), 23.2 µg/mL in [18] (5 min) and 0.505 µg/mL in [18] (3 h). The concentration in liver in data set [17] is 15900 ng/g. Further, in [19], the concentration in brain stood at 4990 ng/g.
Regarding `CCCCOC(=O)c1ccccc1C(=O)O` [Mono-n-butyl phthalate], the figures for the concentration in plasma in data set [20] and in [21] were 8.11 µg/mL and 3.21 µg/mL, respectively.
As for `O=C(O)C(F)(F)C(F)(F)C(F)(F)C(F)(F)C(F)(F)C(F)(F)C(F)(F)C(F)(F)C(F)(F)F` [Perfluorodecanoic acid], the concentration in liver in data set [22] was determined as 139000 ng/g.
In the case of `CCC1(c2ccccc2)C(=O)NC(=O)NC1=O` [Phenobarbital], the concentration in plasma is 0.72 µg/mL in data set [23]; 4.99 µg/mL in [24]; 0.8 µg/mL in data set [25]; 0.99 µg/mL in [26]; 3.11 µg/mL in [27].
On to `O=C(O)CSCC(=O)O` [Thiodiglycolic Acid], for which the concentration in heart in data set [28] amounted to 2560 ng/g. Moreover, the concentration in liver came to 4800 ng/g in data set [29], 10200 ng/g in [31] and 17000 ng/g in [34]. In addition, the concentration in thymus is 6960 ng/g in [30] and 1490 ng/g in [32]. In addition, the concentration in plasma in data set [33] was determined as 4.15 µg/mL.
`O=C(O)C(Cl)Cl` [dichloroacetic acid]: the concentration in plasma turned out to be 7.78 µg/mL in data set [35]; 20.9 µg/mL in data set [36] (5 min); 57.5 µg/mL in [36] (2 h); 0.438 µg/mL in data set [37] (10 min); 0.158 µg/mL in [37] (50 min); 2.26 µg/mL in data set [38].
